Experimental data as given in patent publication US10842800B2, “Concomitant administration of glucocorticoid receptor modulators and CYP3A inhibitors” (Corcept Therapeutics, Inc., priority 2017, dated 2020).
Entries after “also recorded” stand apart in the source; their conditions may differ.

Tests used:
Type in all cases: in vivo, human
[1] = Cross-study comparison of exposure to mifepristone and metabolites with historic 1200 mg OD mifepristone study (Example 3); settings: Test: present study Day 17, 600 mg mifepristone OD + 200 mg ketoconazole BID; Reference: historic study Day 7, 1200 mg mifepristone OD alone; after 34% fat meal
[2] = Effect of ketoconazole 200 mg BID on PK of mifepristone 600 mg OD and metabolites, with food (Example 3); settings: for concentrations on Day 17 compared with Day 12: Day 17: mifepristone 600 mg daily + ketoconazole 200 mg twice daily, Day 12: mifepristone alone; for Ratio % Test/Reference, AUC0-24 (geometric mean ratio) / Ratio % Test/Reference, Cmax (geometric mean ratio): Test: Day 17, 600 mg mifepristone OD + 200 mg ketoconazole BID, Reference: Day 12, 600 mg mifepristone OD; for effect of co-administration with ketoconazole on exposure: mifepristone 600 mg OD + ketoconazole 200 mg BID
Description: A single dose of ketoconazole was administered on Day −1.
The study was a two period study design.

[3] = Effect of a 400 mg single dose of ketoconazole on PK of an 8-day regimen of 300 mg or 600 mg OD mifepristone, moderate fat breakfast (Example 2); settings: mifepristone 300 or 600 mg OD
Description: This was an open-label study in healthy male subjects. […] The 400 mg single dose of ketoconazole was given to all subjects on day 8.
METHODOLOGY: Twelve subjects were enrolled, six in Cohort 1 and 6 in Cohort 2.
Subjects were discharged on Day 11.
Subjects were discharged on Day 11. Subjects in both cohorts returned to study center on Day 13 for safety monitoring, collection of the 120-hour PK draw, and completion of the Termination Visit procedures, followed by discharge from the study. To the extent possible, any adverse events deemed study drug-related and that were ongoing at the time of discharge from the study were followed-up to resolution or until a determination was made that the unresolved event was stable.
DIAGNOSIS AND MAIN […] FOR INCLUSION: Healthy male volunteers between the ages of 18 to 45 years of age with a body mass index (BMI) ranging between 19 and 32 kg/m2 and a weight of at least 60 kg (132 lbs) were enrolled. Subjects had no clinically significant abnormal findings on the physical examination, ECG, blood pressure, heart rate, medical history, or clinical laboratory results during screening. The QTc interval at screening was less than 450 msec.
DURATION OF TREATMENT: Up to a total of 28 days, including up to 2 weeks screening, dosing on Days 1-8, safety observation, and PK sample collection through Day 13.
Descriptive statistics count, mean, median, standard deviation, minimum, maximum, and % coefficient of variation) were provided. Ketoconazole concentrations were listed and summarized. GM means of Cmax and total AUC were compared for the single dose in this study to the combined data of reported 400 mg single doses of ketoconazole of healthy subjects from the literature.

Compound	Ratio % Test/Ref, AUC0-24 (geometric mean ratio) [1]	Ratio % Test/Ref, Cmax (geometric mean ratio) [1]	concentrations on Day 17 compared with Day 12 [2]	Ratio % Test/Reference, AUC0-24 (geometric mean ratio) [2]	Ratio % Test/Reference, Cmax (geometric mean ratio) [2]	effect of co-administration with ketoconazole on exposure [2]	mean increase in exposure ([2]; co-administration with ketoconazole 200 mg BID, mifepristone 600 mg OD)	mean metabolite exposure compared with mifepristone [3]
CC#C[C@]1(O)CC[C@H]2[C@@H]3CCC4=CC(=O)CCC4=C3[C@@H](c3ccc(NC)cc3)C[C@@]21C [RU 42633, (8S,11R,13S,14S,17S)-17-hydroxy-13-methyl-11-[4-(methylamino)phenyl]-17-prop-1-ynyl-1,2,6,7,8,11,12,14,15,16-decahydrocyclopenta[a]phenanthren-3-one]	91.34%	96.31%	similar	102.33%	105.73%	not affected by ketoconazole; also recorded: little change in exposure	–	–
CN(C)c1ccc([C@H]2C[C@@]3(C)[C@@H](CC[C@@]3(O)C#CCO)[C@@H]3CCC4=CC(=O)CCC4=C32)cc1 [RU 42698, (8S,11R,13S,14S,17S)-11-[4-(dimethylamino)phenyl]-17-hydroxy-17-(3-hydroxyprop-1-ynyl)-13-methyl-1,2,6,7,8,11,12,14,15,16-decahydrocyclopenta[a]phenanthren-3-one]	118.18%	116.55%	higher	166.86%	169.13%	increased by ketoconazole	approximately 70%	lower
CC#C[C@]1(O)CC[C@H]2[C@@H]3CCC4=CC(=O)CCC4=C3[C@@H](c3ccc(N)cc3)C[C@@]21C [RU 42848, (8S,11R,13S,14S,17S)-11-(4-aminophenyl)-17-hydroxy-13-methyl-17-prop-1-ynyl-1,2,6,7,8,11,12,14,15,16-decahydrocyclopenta[a]phenanthren-3-one]	81.43%	82.45%	similar	94.88%	95.48%	not affected by ketoconazole; also recorded: little change in exposure	–	–
